Values of other authors as cited in patent publication US20150283242A1, “EFFECTIVE PHARMACEUTICAL CARRIER FOR POORLY BIOAVAILABLE DRUGS” (Hovid Berhad, priority 2007, published 2015).

| SMILES | log P (partition coefficient) |
| --- | --- |
| COc1ccc2c(c1)c(CC(=O)O)c(C)n2C(=O)c1ccc(Cl)cc1 [indomethacin] | 4.27 |
| CC[C@H](C)C(=O)O[C@H]1C[C@H](O)C=C2C=C[C@H](C)[C@H](CC[C@@H](O)C[C@@H](O)CC(=O)O)[C@H]21 [pravastatin] | 2.42 |
| COC1=C(OC)C(=O)C(C/C=C(\C)CC/C=C(\C)CC/C=C(\C)CC/C=C(\C)CC/C=C(\C)CC/C=C(\C)CC/C=C(\C)CC/C=C(\C)CC/C=C(\C)CCC=C(C)C)=C(C)C1=O [ubiquonone] | more than 10 |
| Cc1ccc(C)c(OCCCC(C)(C)C(=O)O)c1 [gemfibrozil] | 4.77 |
